{"source": "PubChem BioAssay AID1259338", "about": "(Broad Institute, 2017)", "note": "The source made the active and inactive calls.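 The calls were made as follows: active = compounds lowering the signal with a fitted AC50 at or below a set concentration limit; inconclusive = flat curve with 30 to 70% inhibition, or a poor fit; inactive = the rest.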", "data": [{"target": "Caspase recruitment domain-containing protein 9 (Homo sapiens) + E3 ubiquitin-protein ligase TRIM62 (Homo sapiens) (UniProt Q9H257+Q9BVG3)", "sequence (Q9BVG3 whole entry, looked up, the tested form may be a part)": "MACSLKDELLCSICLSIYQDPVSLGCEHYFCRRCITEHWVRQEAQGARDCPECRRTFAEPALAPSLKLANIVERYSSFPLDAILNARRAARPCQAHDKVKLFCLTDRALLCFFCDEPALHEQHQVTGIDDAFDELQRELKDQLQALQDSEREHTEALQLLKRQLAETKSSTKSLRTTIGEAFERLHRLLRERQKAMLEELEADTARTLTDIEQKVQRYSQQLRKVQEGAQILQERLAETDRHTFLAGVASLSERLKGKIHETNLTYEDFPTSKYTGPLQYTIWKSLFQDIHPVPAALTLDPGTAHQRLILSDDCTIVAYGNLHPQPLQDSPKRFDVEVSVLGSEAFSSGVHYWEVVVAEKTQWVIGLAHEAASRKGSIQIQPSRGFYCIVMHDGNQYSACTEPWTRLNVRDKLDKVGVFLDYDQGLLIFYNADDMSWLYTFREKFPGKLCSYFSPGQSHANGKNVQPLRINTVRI", "sequence (Q9H257 whole entry, looked up, the tested form may be a part)": "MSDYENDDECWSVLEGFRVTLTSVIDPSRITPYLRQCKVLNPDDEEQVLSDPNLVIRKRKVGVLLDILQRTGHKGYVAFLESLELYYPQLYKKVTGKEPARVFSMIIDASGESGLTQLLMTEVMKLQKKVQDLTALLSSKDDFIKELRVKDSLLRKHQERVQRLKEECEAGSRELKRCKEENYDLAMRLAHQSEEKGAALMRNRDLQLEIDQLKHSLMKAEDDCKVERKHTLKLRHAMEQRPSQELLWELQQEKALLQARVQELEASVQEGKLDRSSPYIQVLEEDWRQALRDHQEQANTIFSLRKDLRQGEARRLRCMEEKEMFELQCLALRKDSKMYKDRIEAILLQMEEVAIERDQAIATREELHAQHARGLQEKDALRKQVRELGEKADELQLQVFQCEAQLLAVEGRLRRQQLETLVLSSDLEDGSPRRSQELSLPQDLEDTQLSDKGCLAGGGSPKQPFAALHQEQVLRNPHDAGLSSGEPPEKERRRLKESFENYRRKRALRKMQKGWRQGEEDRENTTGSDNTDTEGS", "experiment": "disruptors of CARD9-TRIM62 binding, dose response, cell lysate, HEK293FT lysates, Luminex bead readout (AID 1259338); as to activity change, negative = inhibition: reference of the scale not given here", "details": "Luminex bead PPI, MFI", "values": [{"smiles": "Cc1cccc2nc(CSCc3ccco3)cn12", "AC50": "> 160 µM (inactive)"}, {"smiles": "Cc1ccc(S(=O)(=O)Nc2ccc3c(c2)C(=O)N([C@H](C)CO)C[C@H](C)[C@@H](CN(C)C(=O)C2CCCCC2)OCCCC[C@H](C)O3)cc1", "AC50": "> 160 µM (inactive)"}, {"smiles": "c1ccc(-c2nc(-c3ccco3)n3ccccc23)cc1", "AC50": "> 76 µM (inactive)"}, {"smiles": "O=C(NCCCN1CCOCC1)c1cc(-c2ccco2)nc2ccccc12", "AC50": "41.8 µM"}, {"smiles": "COCC(=O)N1CCCC2(CCN(CCN3CCCC3)C2=O)C1", "note": "(centres undefined)", "AC50": "> 160 µM (inactive)"}, {"smiles": "O=S(=O)(c1ccccc1)N1CC2CN(Cc3ccc(O)cc3)C2C1", "note": "(centres undefined)", "AC50": "22.8 µM"}, {"smiles": "COc1ccc(NC(=O)CN(C)C(=O)c2cc(-c3ccco3)nc3ccccc23)cc1", "AC50": "78.2 µM"}, {"smiles": "Cc1ccc(C(=O)Nc2ccc(N3CCC(C(N)=O)(N4CCCCC4)CC3)c(C(=O)O)c2)cc1", "AC50": "24.3 µM"}, {"smiles": "O=C(NC1CC1)c1cc(-c2ccco2)nc2ccccc12", "AC50": "> 160 µM (inactive)"}, {"smiles": "COc1ccc(-n2c(C)c3c(OC)cccc(=O)c3c2C)cc1", "AC50": "79.7 µM"}, {"smiles": "Cc1c(C(=O)OCC2CCCO2)[nH]c2c1C(=O)CC(c1ccco1)C2", "note": "(centres undefined)", "AC50": "> 160 µM (inactive)"}, {"smiles": "CC1=CCC(C(=O)O)C(C(=O)NC2CCCCC2)C1", "note": "(centres undefined)", "AC50": "83.4 µM"}, {"smiles": "Cc1ccsc1[C@@H]1CCN(Cc2ccc(-c3ccn[nH]3)o2)C[C@H]1O", "AC50": "> 160 µM (inactive)"}, {"smiles": "COc1ccc(S(=O)(=O)N2CCN(C(=O)c3cc4c(s3)CCC4)CC2)cc1", "AC50": "63.1 µM"}, {"smiles": "O=C(O)C1Oc2cc3ccccc3cc2O1", "AC50": "68.9 µM"}, {"smiles": "NC(=O)C1(N2CCCCC2)CCN(c2ncc(NC(=O)c3ccccc3)cc2C(=O)O)CC1", "AC50": "3.25 µM"}, {"smiles": "CCCN1CCCn2nc(CNC(=O)[C@H]3CC[C@@H](N)C3)cc2C1", "AC50": "23 µM"}, {"smiles": "c1cn(CCc2noc(C3CCCC3)n2)c(-c2cc3n(n2)CCCNC3)n1", "AC50": "53.7 µM"}, {"smiles": "O=C1C=C(c2ccccc2)Nc2ccccc2N1", "AC50": "> 160 µM (inactive)"}]}, {"target": "Caspase recruitment domain-containing protein 9 (Homo sapiens) + E3 ubiquitin-protein ligase TRIM62 (Homo sapiens) (UniProt Q9H257+Q9BVG3)", "experiment": "disruptors of CARD9-TRIM62 binding, dose response, cell lysate, HEK293FT lysates, Luminex bead readout (AID 1259338)", "details": "Luminex bead PPI, MFI, at 38 µM (top of the series)", "values": [{"smiles": "COc1ccc(NC(=O)c2nc(Nc3ccccc3)c3ccccc3n2)cc1", "activity change, negative = inhibition": "inactive"}, {"smiles": "Cc1cccc(Nc2nc(C(=O)Nc3cc(F)ccc3F)nc3ccccc23)c1", "activity change, negative = inhibition": "inactive"}, {"smiles": "CCC12CCCN3CCc4c(n(c5ccccc45)C(O)(C(=O)OC)C1)C32", "note": "(centres undefined)", "activity change, negative = inhibition": "inactive"}]}, {"target": "Caspase recruitment domain-containing protein 9 (Homo sapiens) + E3 ubiquitin-protein ligase TRIM62 (Homo sapiens) (UniProt Q9H257+Q9BVG3)", "experiment": "disruptors of CARD9-TRIM62 binding, dose response, cell lysate, HEK293FT lysates, Luminex bead readout (AID 1259338)", "details": "Luminex bead PPI, MFI, at 80 µM (top of the series)", "values": [{"smiles": "Cc1ccc(-c2nn(-c3ccccc3)cc2CN(Cc2ccccc2)C(=O)CCC(=O)O)o1", "activity change, negative = inhibition": "inactive"}, {"smiles": "COc1ccc(F)c(CN2C[C@H]3CC[C@@H]2CN(Cc2cscn2)C3)c1", "activity change, negative = inhibition": "inactive"}, {"smiles": "Cc1c(/C=C/c2nc3ccccc3c(=O)n2-c2ccccn2)c2ccccc2n1C", "activity change, negative = inhibition": "inactive"}, {"smiles": "Cc1ccc2c(c1)C(N1CCCC1=O)CC(c1ccco1)N2", "note": "(centres undefined)", "activity change, negative = inhibition": "inactive"}, {"smiles": "CCC1c2ccc(C)n2CCN1C(=O)Nc1ccccc1C(=O)OC", "note": "(centres undefined)", "activity change, negative = inhibition": "inactive"}, {"smiles": "COc1cc(N)c(Cc2nccc3cc(OC)c(OC)cc23)cc1OC", "activity change, negative = inhibition": "inactive"}, {"smiles": "Cc1nc2ccccc2nc1CSCc1ccco1", "activity change, negative = inhibition": "inactive"}, {"smiles": "On1c(-c2ccco2)nc2c1CCc1nonc1-2", "activity change, negative = inhibition": "inactive"}, {"smiles": "COc1ccc(N2CC3=C(N2)c2ccccc2CC3)cc1", "activity change, negative = inhibition": "inactive"}, {"smiles": "Cc1nc(C)c(C(=O)Nc2ncc([N+](=O)[O-])s2)o1", "activity change, negative = inhibition": "inactive"}, {"smiles": "C[C@H](CO)N1C[C@H](C)[C@@H](CN(C)CC2CCCCC2)OCCCC[C@H](C)Oc2ccc(NS(=O)(=O)c3cn(C)cn3)cc2C1=O", "activity change, negative = inhibition": "inactive"}, {"smiles": "O=C(COC(=O)c1ccccc1Oc1ccccc1)NCc1ccco1", "activity change, negative = inhibition": "inactive"}, {"smiles": "CCCN1CCc2nc(SCc3nc(-c4ccc(OC)cc4OC)oc3C)[nH]c(=O)c2C1", "activity change, negative = inhibition": "inactive"}, {"smiles": "O=C(O)Cc1c[nH]c2cccc(O)c12", "activity change, negative = inhibition": "inactive"}, {"smiles": "O=C(NC(Sc1ncccn1)C(=O)c1ccccc1)c1ccccc1", "note": "(centres undefined)", "activity change, negative = inhibition": "inactive"}, {"smiles": "CCCC(=O)NCc1ccc2c(c1)cc(C)n2C", "activity change, negative = inhibition": "inactive"}, {"smiles": "CCOc1cc2c(C#N)c(N3CCNCC3)nc(N)c2c(N)n1", "activity change, negative = inhibition": "inactive"}, {"smiles": "O=C(O)COCC(=O)NCc1ccco1", "activity change, negative = inhibition": "inactive"}, {"smiles": "Cc1ccc(N2C(=O)c3ccccc3C2C(=O)c2ccc(O)cc2O)cc1", "note": "(centres undefined)", "activity change, negative = inhibition": "inactive"}, {"smiles": "O=c1/c(=C/c2ccco2)sc2nc3ccccc3n12", "activity change, negative = inhibition": "inactive"}, {"smiles": "CC(C)(C)c1ccc(-c2nc(C#N)c(NCc3ccncc3)o2)cc1", "activity change, negative = inhibition": "inactive"}, {"smiles": "O=C(O)C(c1ccccc1)C(c1ccccc1)c1ccccc1", "note": "(centres undefined)", "activity change, negative = inhibition": "inactive"}, {"smiles": "CC(C)=CCC(C#N)(CC=C(C)C)C(=O)O", "activity change, negative = inhibition": "inactive"}, {"smiles": "O=C(Nc1nnc(-c2ccco2)s1)c1ccccc1", "activity change, negative = inhibition": "inactive"}, {"smiles": "C[C@H](CO)N1C[C@H](C)[C@H](CN(C)C(=O)C2CCCCC2)OCCCC[C@H](C)Oc2ccc(NS(=O)(=O)c3cccs3)cc2C1=O", "activity change, negative = inhibition": "inactive"}, {"smiles": "O=C(Nc1ccc2oc(-c3cccnc3)nc2c1)c1ccc2c(c1)OCCO2", "activity change, negative = inhibition": "inactive"}, {"smiles": "O=C(CN1CCN(c2ccccc2O)CC1)NC(=O)NC1CCCC1", "activity change, negative = inhibition": "inactive"}, {"smiles": "O=[N+]([O-])c1ccc2nn(Cc3ccccc3)cc2c1", "activity change, negative = inhibition": "inactive"}, {"smiles": "C[C@H](CO)N1C[C@H](C)[C@@H](CN(C)C(=O)C2CCCCC2)OCCCC[C@H](C)Oc2ccc(NS(=O)(=O)c3ccccc3)cc2C1=O", "activity change, negative = inhibition": "inactive"}, {"smiles": "CCN(CCNC(=O)C1CCN(S(=O)(=O)c2c(C)noc2C)CC1)c1ccccc1", "activity change, negative = inhibition": "inactive"}, {"smiles": "CC1(C)Cc2c(c(N3CCOCC3)nc3sc(C(=O)NCc4ccco4)c(N)c23)CO1", "activity change, negative = inhibition": "inactive"}, {"smiles": "O=C(Nc1cccc2ccccc12)NC1CC1", "activity change, negative = inhibition": "inactive"}, {"smiles": "Fc1ccc(CSc2nnc(-c3cccnc3)n2Cc2ccco2)cc1", "activity change, negative = inhibition": "inactive"}, {"smiles": "O=c1oc(-c2ccccc2)nc2sc3c(c12)CCC3", "activity change, negative = inhibition": "inactive"}, {"smiles": "COCC(=O)n1nc(-c2ccco2)nc1NCc1cccs1", "activity change, negative = inhibition": "inactive"}, {"smiles": "CCc1oc2ccccc2c1C(=O)CCN1CCCCC1", "activity change, negative = inhibition": "inactive"}, {"smiles": "O=[N+]([O-])c1ccc2cc[nH]c2c1", "activity change, negative = inhibition": "inactive"}, {"smiles": "C[n+]1cccc2cccc(O)c21", "activity change, negative = inhibition": "inactive"}, {"smiles": "Cc1cc(C(=O)Nc2nc3c(s2)CCc2ccccc2-3)no1", "activity change, negative = inhibition": "inactive"}, {"smiles": "CN(C)C(CN=C1NS(=O)(=O)c2ccccc21)c1ccco1", "note": "(centres undefined)", "activity change, negative = inhibition": "inactive"}, {"smiles": "O=C(O)c1cc(-c2ccc(-c3ccc(F)cc3)o2)nc2ccccc12", "activity change, negative = inhibition": "inactive"}, {"smiles": "Cn1nnnc1SCCNCc1ccc(-c2cccc(C(F)(F)F)c2)o1", "activity change, negative = inhibition": "inactive"}, {"smiles": "C[C@H](CO)N1C[C@H](C)[C@@H](CN(C)CC2CCCCC2)OCCCC[C@H](C)Oc2ccc(NS(=O)(=O)c3ccccc3)cc2C1=O", "activity change, negative = inhibition": "inactive"}, {"smiles": "c1coc(-c2cn3ccc4ccccc4c3n2)c1", "activity change, negative = inhibition": "inactive"}, {"smiles": "COc1ccc(S(=O)(=O)Nc2ccc3c(c2)C(=O)N([C@H](C)CO)C[C@H](C)[C@@H](CN(C)C(=O)C2CCCCC2)OCCCC[C@H](C)O3)cc1", "activity change, negative = inhibition": "inactive"}, {"smiles": "CN(c1ccccc1C(=O)NCc1ccco1)S(C)(=O)=O", "activity change, negative = inhibition": "inactive"}, {"smiles": "O=C(Nc1nc(-c2ccco2)c(-c2ccco2)s1)c1ccco1", "activity change, negative = inhibition": "inactive"}]}]}
